Data: ChEMBL document CHEMBL3137667, “[Drug-induced liver injury; fourteenth updated edition of the bibliographic database of liver injuries and related drugs]” (Gastroenterol Clin Biol, 2004)

Assays:
[1] = Highest frequency of moderate liver toxicity observed during clinical trials, expressed as a percentage. [column '% BIOL' in source]; conditions: human
[2] = Highest frequency of acute liver toxicity observed during clinical trials, expressed as a percentage. [column '% AIGUE' in source]; conditions: human
[3] = human, serum
[4] = human, serum; remark: listed apart in the source
[5] = human
[6] = human; remark: listed apart in the source
[7] = human; remark: listed apart in the source
[8] = human, serum, 4383 h
[9] = human; remark: listed apart in the source
[10] = human; remark: listed apart in the source
[11] = human; remark: listed apart in the source
[12] = human; remark: listed apart in the source
[13] = human; remark: listed apart in the source
[14] = human; remark: listed apart in the source
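For Hepatotoxicity (association with vascular disease) in this document: count of indexed literature references reporting vascular liver injury in humans, e.g. peliosis hepatitis, hepatic veno-occlusive disease or Budd-Chiari syndrome.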
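For Hepatotoxicity (benign tumour) in this document: value is a count of indexed literature references citing a benign tumour confirmed by histopathology.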
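For Hepatotoxicity (choleostasis) in this document: human cholestatic liver injury, shown by histopathology or by peak ALT or AST elevation over alkaline phosphatase ratio below 2, value counts indexed literature reports.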
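For Hepatotoxicity (chronic liver disease) in this document: chronic liver injury confirmed by histopathology or persistently raised serum aminotransferase activity beyond 6 months, value given as the count of indexed literature references.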
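For Hepatotoxicity (cirrhosis) in this document: value is a count of indexed literature references reporting cirrhosis confirmed by histopathology.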
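For Hepatotoxicity (cytolytic) in this document: human cytolytic liver injury, shown by histopathology or by a ratio above 5 of peak ALT or AST elevation to alkaline phosphatase elevation, value counts indexed references.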
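For Hepatotoxicity (granulomatous hepatitis) in this document: value is a count of indexed literature references reporting granulomatous liver disease confirmed by histopathology.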
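For Hepatotoxicity (malignant tumour) in this document: malignant tumour confirmed by histopathology, value gives the count of indexed literature references reporting it.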
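For Hepatotoxicity (severe hepatitis) in this document: human clinical data: severe hepatitis, meaning potentially life-threatening liver failure or clinically observed cases, the value counts how many indexed literature references report it.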
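For Hepatotoxicity (steatosis) in this document: steatosis confirmed by histopathology, value is the count of indexed references.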

SMILES	Hepatotoxicity (moderate) [1]	Hepatotoxicity (acute) [2]	Hepatotoxicity (moderate) [3]	Hepatotoxicity (acute) [4]	Hepatotoxicity (cytolytic) [5]	Hepatotoxicity (choleostasis) [6]	Hepatotoxicity (severe hepatitis) [7]	Hepatotoxicity (chronic liver disease) [8]	Hepatotoxicity (cirrhosis) [9]	Hepatotoxicity (granulomatous hepatitis) [10]	Hepatotoxicity (association with vascular disease) [11]	Hepatotoxicity (steatosis) [12]	Hepatotoxicity (malignant tumour) [13]	Hepatotoxicity (benign tumour) [14]	Hepatotoxicity (moderate) ([1]; Liver)	Hepatotoxicity (acute) ([2]; Liver)	Hepatotoxicity (cytolytic) ([5]; Liver)	Hepatotoxicity (choleostasis) ([6]; Liver)	Hepatotoxicity (severe hepatitis) ([7]; Liver)	Hepatotoxicity (granulomatous hepatitis) ([10]; Liver)
Cc1cc(C(=O)NCCc2ccc(S(=O)(=O)NC(=O)NN3CCCCCC3)cc2)no1 [GLISOXEPIDE]	0%	0%	1	0	0	0	0	0	0	0	0	0	0	0	–	–	–	–	–	–
CC(C)C[C@H](NC(=O)[C@@H](COC(C)(C)C)NC(=O)[C@H](Cc1ccc(O)cc1)NC(=O)[C@H](CO)NC(=O)[C@H](Cc1c[nH]c2ccccc12)NC(=O)[C@H](Cc1cnc[nH]1)NC(=O)[C@@H]1CCC(=O)N1)C(=O)N[C@@H](CCCNC(=N)N)C(=O)N1CCC[C@H]1C(=O)NNC(N)=O [GOSERELIN]	7.8%	0%	5	0	0	0	1	0	0	0	0	0	0	0	–	–	–	–	–	–
Cc1cc2c(C(C)C)c(O)c(O)c(C=O)c2c(O)c1-c1c(C)cc2c(C(C)C)c(O)c(O)c(C=O)c2c1O [GOSSYPOL]	93%	0%	1	0	0	0	0	0	0	0	0	0	0	0	–	–	–	–	–	–
Cc1c(F)c(N2CCNC(C)C2)cc2c1c(=O)c(C(=O)O)cn2C1CC1 (centres undefined) [GREPAFLOXACIN]	–	–	22	0	–	–	–	0	0	–	0	0	0	0	14.3%	0%	0	0	0	0
CCCCN(CCCC)CCC(O)c1cc2c(Cl)cc(Cl)cc2c2cc(C(F)(F)F)ccc12 (centres undefined) [HALOFANTRINE]	29%	0%	8	0	0	0	0	0	0	0	0	0	0	0	–	–	–	–	–	–
CC(=O)NCCOC(=O)C(Oc1cccc(C(F)(F)F)c1)c1ccc(Cl)cc1 (centres undefined) [HALOFENATE]	0%	0%	1	0	0	0	0	0	0	0	0	0	0	0	–	–	–	–	–	–
O=C(NCCN1CCC(n2c(=O)[nH]c3cc(Cl)ccc32)CC1)c1ccc(F)cc1 [HALOPEMIDE]	27%	0%	1	0	0	0	0	0	0	0	0	0	0	0	–	–	–	–	–	–
CC1(C)S[C@@H]2[C@H](N3C(=O)[C@@H](c4ccccc4)NC3(C)C)C(=O)N2[C@H]1C(=O)O [HETACILLIN]	0%	0%	0	1	1	0	0	0	0	0	0	0	0	0	–	–	–	–	–	–
CC(=O)NCCCCCCNC(C)=O [HEXAMETHYLENEBISACETAMIDE]	0%	0%	0	1	1	0	0	0	0	0	0	0	0	0	–	–	–	–	–	–
CN1CCCN(C(c2ccccc2)c2ccc(Cl)cc2)CC1 (centres undefined) [HOMOCHLORCYCLIZINE]	0%	0%	0	1	1	1	0	0	0	0	0	0	0	0	–	–	–	–	–	–
CC(=O)[C@@]1(O)CC[C@H]2[C@@H]3CCC4=CC(=O)CC[C@]4(C)[C@H]3CC[C@@]21C [HYDROXYPROGESTERONE]	0%	0%	0	1	0	1	0	0	0	0	0	0	0	0	–	–	–	–	–	–
